Results reported in patent publication US12060351B2, “Thiadiazole IRAK4 inhibitors” (Gilead Sciences, Inc., priority 2018, dated 2024).
Read-outs that look alike come from different tables or passages of the source.

Key:
IRAK4 enzyme = target: T1, IRAK4 enzyme (Homo sapiens, UniProt Q9NWZ3); assay: IRAK4 Biochemical Assay (TR-FRET, STK1 KinEASE); settings: 500 μM ATP, Table 2 second part (compounds 33-343), read-out: IC50 IRAK4-HTBS
T1 construct: purchased Carna Biosciences, Chuo-ku, Kobe, Japan
T1 sequence (Q9NWZ3 1-460): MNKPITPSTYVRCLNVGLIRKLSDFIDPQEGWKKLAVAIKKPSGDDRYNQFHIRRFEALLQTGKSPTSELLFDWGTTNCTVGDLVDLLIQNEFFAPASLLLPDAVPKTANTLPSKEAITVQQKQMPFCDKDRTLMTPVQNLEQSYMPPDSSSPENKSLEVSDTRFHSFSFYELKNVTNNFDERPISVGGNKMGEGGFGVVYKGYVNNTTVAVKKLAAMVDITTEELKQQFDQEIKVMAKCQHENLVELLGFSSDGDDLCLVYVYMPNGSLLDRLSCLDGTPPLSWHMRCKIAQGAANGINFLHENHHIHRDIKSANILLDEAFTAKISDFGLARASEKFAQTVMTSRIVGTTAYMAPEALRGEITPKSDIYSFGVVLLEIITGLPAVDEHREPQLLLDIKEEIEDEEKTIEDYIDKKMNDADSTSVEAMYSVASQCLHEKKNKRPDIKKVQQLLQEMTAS
How it was run: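 Human IRAK4 (0.75 nM) preincubated 15 min with compound and 2 μM STK1 peptide, then reacted 120 min at room temperature with 500 μM ATP in HEPES pH 7.0 buffer with MgCl2 and DTT. EDTA stop with Cryptate anti-phosphopeptide antibody and tracer, 60 min; TR-FRET read as 665/615 nm ratio.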

TNFα = assay: IRAK4 Monocyte TNFα Cell Based Assay (LPS-stimulated, TR-FRET TNFα detection); parameters: species or system human; settings: Homo sapiens, Monocyte, read-out: EC50 MONO TNF HTRF
How it was run: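 Monocytes (5,000 cells/well) treated with compound (0.1% DMSO) for 1 hour at 37° C, then stimulated with 50 pg/ml LPS for 4 hours. TNFα in medium quantified by TR-FRET two-antibody detection after overnight room-temperature incubation. Percent of control calculated against unstimulated (0%) and LPS-stimulated (100%) cells.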

[1] = human monocytes, LPS-stimulated, Table 2 second part (compounds 33-343)

Compound	IC50 (IRAK4 enzyme)	EC50 (TNFα; [1])	EC50 (TNFα)
COC(=O)N[C@H]1CC[C@H](c2nnc(-c3cnc(-c4ccc5cc(C#N)cnn45)cc3NC(C)C)s2)CC1 [Example 126, methyl ((1r,4r)-4-(5-(6-(3-cyanopyrrolo[1,2-b]pyridazin-7-yl)-4-(isopropylamino)pyridin-3-yl)-1,3,4-thiadiazol-2-yl)cyclohexyl)carbamate]	0.89 nM	26.2 nM	
COC(=O)NC[C@H]1C[C@H](Nc2cc(-c3ccc4cc(C#N)cnn34)ncc2-c2nnc([C@H]3CC[C@H](NC(=O)C4CC4)CC3)s2)C1 [Example 134, methyl (((1R,3r)-3-((2-(3-cyanopyrrolo[1,2-b]pyridazin-7-yl)-5-(5-((1r,4R)-4-(cyclopropanecarboxamido)cyclohexyl)-1,3,4-thiadiazol-2-yl)pyridin-4-yl)amino)cyclobutyl)methyl)carbamate]	0.94 nM	6.9 nM	
CNC(=O)N[C@H]1CC[C@H](c2nnc(-c3cnc(-c4ccc5cc(C#N)cnn45)cc3NC(C)C)s2)CC1 [Example 140, 1-((1r,4r)-4-(5-(6-(3-cyanopyrrolo[1,2-b]pyridazin-7-yl)-4-(isopropylamino)pyridin-3-yl)-1,3,4-thiadiazol-2-yl)cyclohexyl)-3-mcthylurea]	0.84 nM	6.4 nM	
CC(C)Nc1cc(-c2ccc3cc(C#N)cnn23)ncc1-c1nnc(N2C[C@H]3CC[C@@H](C2)[C@@]3(C)O)s1 [Example 153, 7-(5-(5-((1R,5S,8r)-8-hydroxy-8-methyl-3-azabicyclo[3.2.1]octan-3-yl)-1,3,4-thiadiazol-2-yl)-4-(isopropylamino)pyridin-2-yl)pyrrolo[1,2-b]pyridazine-3-carbonitrile]	0.91 nM	7.2 nM	
CC(=O)N[C@]1(C)[C@@H]2CC[C@H]1CN(c1nnc(-c3cnc(-c4ccc5cc(C#N)cnn45)cc3NC(C)C)s1)C2 [Example 155, N-((1R,5S,8s)-3-(5-(6-(3-cyanopyrrolo[1,2-b]pyridazin-7-yl)-4-(isopropylamino)pyridin-3-yl)-1,3,4-thiadiazol-2-yl)-8-methyl-3-azabicyclo[3.2.1]octan-8-yl)acetamide]	1.52 nM	7.4 nM	
N#Cc1cnn2c(-c3cc(NC4CCOCC4)c(-c4nnc([C@H]5CC[C@H](NC(=O)C6CC6)CC5)s4)cn3)ccc2c1 [Example 156, N-((1r,4r)-4-(5-(6-(3-cyanopyrrolo[1,2-b]pyridazin-7-yl)-4-((tetrahydro-2H-pyran-4-yl)amino)pyridin-3-yl)-1,3,4-thiadiazol-2-yl)cyclohexyl)cyclopropanecarboxamide]	1.42 nM	10.9 nM	
CC(=O)N[C@]1(C)[C@@H]2CC[C@H]1CN(c1nnc(-c3cnc(-c4ccc5cc(C#N)cnn45)cc3N[C@H](C)C#N)s1)C2 [Example 157, N-((1R,5S,8S)-3-(5-(4-(((R)-1-cyanoethyl)amino)-6-(3-cyanopyrrolo[1,2-b]pyridazin-7-yl)pyridin-3-yl)-1,3,4-thiadiazol-2-yl)-8-methyl-3-azabicyclo[3.2.1]octan-8-yl)acetamide]	1.03 nM	1.8 nM	
CC1(Nc2cc(-c3ccc4cc(C#N)cnn34)ncc2-c2nnc([C@H]3CC[C@H](NC(=O)C4CC4)CC3)s2)COC1 [Example 158, N-((1r,4r)-4-(5-(6-(3-cyanopyrrolo[1,2-b]pyridazin-7-yl)-4-((3-methyloxetan-3-yl)amino)pyridin-3-yl)-1,3,4-thiadiazol-2-yl)cyclohexyl)cyclopropanecarboxamide]	1.15 nM	19.8 nM	
CC(=O)N[C@H]1[C@@H]2CCC[C@H]1CN(c1nnc(-c3cnc(-c4ccc5cc(C#N)cnn45)cc3NC(C)C)s1)C2 [Example 165, N-((1R,5S,9r)-3-(5-(6-(3-cyanopyrrolo[1,2-b]pyridazin-7-yl)-4-(isopropylamino)pyridin-3-yl)-1,3,4-thiadiazol-2-yl)-3-lazabicyclo[3.3.1]nonan-9-yl)acetamide]	1.15 nM	39.1 nM	
CC(=O)N[C@@H]1[C@@H]2C[C@H]1CN(c1nnc(-c3cnc(-c4ccc5cc(C#N)cnn45)cc3NC(C)C)s1)C2 [Example 173, N-((1R,5S,6s)-3-(5-(6-(3-cyanopyrrolo[1,2-b]pyridazin-7-yl)-4-(isopropylamino)pyridin-3-yl)-1,3,4-thiadiazol-2-yl)-3-azabicyclo[3.1.1]heptan-6-yl)acetamide]	1.52 nM		11.6 nM

Now those with a lower IC50 (IRAK4 enzyme), led by results:

IC50 (IRAK4 enzyme)	EC50 (TNFα; [1])	Compound	EC50 (TNFα)
0.52 nM	10.5 nM	N#Cc1cnn2c(-c3cc(NC4COC4)c(-c4nnc([C@H]5CC[C@H](NC(=O)C6CC6)CC5)s4)cn3)ccc2c1 [Example 135, N-((1r,4r)-4-(5-(6-(3-cyanopyrrolo[1,2-b]pyridazin-7-yl)-4-(oxetan-3-ylamino)pyridin-3-yl)-1,3,4-thiadiazol-2-yl)cyclohexyl)cyclopropanecarboxamide]	
0.65 nM	5.9 nM	CC(C)Nc1cc(-c2ccc3cc(C#N)cnn23)ncc1-c1nnc([C@H]2CC[C@H](NC(=O)N3CCOCC3)CC2)s1 [Example 139, N-((1r,4r)-4-(5-(6-(3-cyanopyrrolo[1,2-b]pyridazin-7-yl)-4-(isopropylamino)pyridin-3-yl)-1,3,4-thiadiazol-2-yl)cyclohexyl)morpholine-4-carboxamide]	
0.38 nM	9.2 nM	N#Cc1cnn2c(-c3cc(NC4COC4)c(-c4nnc([C@H]5CC[C@H](NC(=O)N6CCOCC6)CC5)s4)cn3)ccc2c1 [Example 142, N-((1r,4r)-4-(5-(6-(3-cyanopyrrolo[1,2-b]pyridazin-7-yl)-4-(oxetan-3-ylamino)pyridin-3-yl)-1,3,4-thiadiazol-2-yl)cyclohexyl)morpholine-4-carboxamide]	
0.34 nM	3.1 nM	COC(=O)NC[C@H]1C[C@H](Nc2cc(-c3ccc4cc(C#N)cnn34)ncc2-c2nnc([C@H]3CC[C@H](NC(=O)N4CCOCC4)CC3)s2)C1 [Example 143, methyl (((1R,3r)-3-((2-(3-cyanopyrrolo[1,2-b]pyridazin-7-yl)-5-(5-((1r,4R)-4-(morpholine-4-carboxamido)cyclohexyl)-1,3,4-thiadiazol-2-yl)pyridin-4-yl)amino)cyclobutyl)methyl)carbamate]	
0.63 nM	2.3 nM	CC(=O)N[C@@H]1[C@@H]2CC[C@H]1CN(c1nnc(-c3cnc(-c4ccc5cc(C#N)cnn45)cc3NC3(C)COC3)s1)C2 [Example 144, N-((1R,5S,8s)-3-(5-(6-(3-cyanopyrrolo[1,2-b]pyridazin-7-yl)-4-((3-methyloxetan-3-yl)amino)pyridin-3-yl)-1,3,4-thiadiazol-2-yl)-3-azabicyclo[3.2.1]octan-8-yl)acetamide]	
0.31 nM	4.9 nM	CC1(Nc2cc(-c3ccc4cc(C#N)cnn34)ncc2-c2nnc(N3C[C@H]4CC[C@@H](C3)[C@H]4O)s2)COC1 [Example 149, 7-(5-(5-((1R,5S,8r)-8-hydroxy-3-azabicyclo[3.2.1]octan-3-yl)-1,3,4-thiadiazol-2-yl)-4-((3-methyloxetan-3-yl)amino)pyridin-2-yl)pyrrolo[1,2-b]pyridazine-3-carbonitrile]	
0.46 nM	5.2 nM	CC(C)Nc1cc(-c2ccc3cc(C#N)cnn23)ncc1-c1nnc(N2C[C@H]3CC[C@@H](C2)[C@@H]3NC(=O)C2CC2)s1 [Example 150, N-((1R,5S,8s)-3-(5-(6-(3-cyanopyrrolo[1,2-b]pyridazin-7-yl)-4-(isopropylamino)pyridin-3-yl)-1,3,4-thiadiazol-2-yl)-3-azabicyclo[3.2.1]octan-8-yl)cyclopropanecarboxamide]	
0.52 nM	2.8 nM	C[C@H](C#N)Nc1cc(-c2ccc3cc(C#N)cnn23)ncc1-c1nnc([C@H]2CC[C@H](NC(=O)C3CC3)CC2)s1 [Example 160, N-((1R,4r)-4-(5-(4-(((R)-1-cyanoethyl)amino)-6-(3-cyanopyrrolo[1,2-b]pyridazin-7-yl)pyridin-3-yl)-1,3,4-thiadiazol-2-yl)cyclohexyl)cyclopropanecarboxamide]	
0.66 nM	2.3 nM	CC(=O)N[C@@H]1[C@@H]2CCC[C@H]1CN(c1nnc(-c3cnc(-c4ccc5cc(C#N)cnn45)cc3NC(C)C)s1)C2 [Example 166, N-((1R,5S,9s)-3-(5-(6-(3-cyanopyrrolo[1,2-b]pyridazin-7-yl)-4-(isopropylamino)pyridin-3-yl)-1,3,4-thiadiazol-2-yl)-3-azabicyclo[3.3.1]nonan-9-yl)acetamide]	
0.46 nM	2.1 nM	CC(=O)N[C@@H]1[C@@H]2CC[C@H]1CN(c1nnc(-c3cnc(-c4ccc5cc(C#N)cnn45)cc3NC3CCOCC3)s1)C2 [Example 171, N-((1R,5S,8s)-3-(5-(6-(3-cyanopyrrolo[1,2-b]pyridazin-7-yl)-4-((tetrahydro-2H-pyran-4-yl)amino)pyridin-3-yl)-1,3,4-thiadiazol-2-yl)-3-azabicyclo[3.2.1]octan-8-yl)acetamide]	
